Results published in patent US7880007B2, “Bicyclic substituted phenyl piperidine modulators of muscarinic receptors” (Vertex Pharmaceuticals Incorporated, priority 2004, dated 2011).

Tests used:
Type in all cases: cell-based
M1 muscarinic receptor = target: T1, M1 muscarinic receptor (Homo sapiens, UniProt P11229); experiment: Functional mobilization of intracellular calcium (FLIPR), M1-CHO cells; conditions: for Emax: 100% efficacy is the maximum response obtained with the Carbachol control; for M1 Activity: M1-CHO cells, calcium mobilization (FLIPR)
T1 construct: expressed in transfected cells; host or cells: CHO (M1-CHO)
T1 sequence (P11229 1-460): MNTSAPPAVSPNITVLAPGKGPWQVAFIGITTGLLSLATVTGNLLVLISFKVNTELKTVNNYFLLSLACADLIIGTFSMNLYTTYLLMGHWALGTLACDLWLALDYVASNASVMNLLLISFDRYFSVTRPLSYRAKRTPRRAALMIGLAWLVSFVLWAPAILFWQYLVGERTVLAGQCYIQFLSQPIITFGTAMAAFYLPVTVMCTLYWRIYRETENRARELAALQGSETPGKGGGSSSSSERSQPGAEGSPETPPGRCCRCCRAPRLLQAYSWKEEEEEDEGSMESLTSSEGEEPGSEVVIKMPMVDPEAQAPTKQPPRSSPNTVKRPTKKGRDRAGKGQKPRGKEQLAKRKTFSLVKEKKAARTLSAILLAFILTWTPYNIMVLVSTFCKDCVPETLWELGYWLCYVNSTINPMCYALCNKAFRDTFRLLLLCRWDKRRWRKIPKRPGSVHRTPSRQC
In short: (§1)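 Calcium mobilisation read by FLIPR over 60 s (ex 488/em 540 nm) in recombinant muscarinic CHO lines loaded with calcium dye plus 1 mM probenecid. Compounds tested as agonists alone, or as inhibitors against EC80 carbachol after 15 min pre-incubation or co-addition; 0.5% DMSO; efficacy scaled to carbachol maximal response.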

M2 muscarinic receptor = target: T2, M2 muscarinic receptor (Homo sapiens, UniProt P08172); experiment: Functional mobilization of intracellular calcium (FLIPR), M2-CHO cells; conditions: for Emax: 100% efficacy is the maximum response obtained with the Carbachol control; for M2 Activity: M2-CHO cells, calcium mobilization (FLIPR)
T2 construct: expressed in transfected cells; host or cells: CHO (M2-CHO)
T2 sequence (P08172 1-466): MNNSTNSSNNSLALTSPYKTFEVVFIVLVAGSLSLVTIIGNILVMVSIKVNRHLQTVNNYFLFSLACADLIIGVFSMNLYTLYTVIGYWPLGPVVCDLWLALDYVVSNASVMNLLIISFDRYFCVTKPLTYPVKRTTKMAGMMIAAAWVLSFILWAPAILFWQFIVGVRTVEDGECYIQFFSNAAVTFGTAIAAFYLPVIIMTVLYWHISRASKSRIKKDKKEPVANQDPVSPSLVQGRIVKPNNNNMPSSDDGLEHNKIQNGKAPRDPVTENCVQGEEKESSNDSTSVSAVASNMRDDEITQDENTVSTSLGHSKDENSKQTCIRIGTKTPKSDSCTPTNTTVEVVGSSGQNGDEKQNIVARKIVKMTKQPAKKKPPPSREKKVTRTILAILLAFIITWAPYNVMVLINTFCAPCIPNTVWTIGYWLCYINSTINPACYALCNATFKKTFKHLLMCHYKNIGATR
In short: as §1

M3 muscarinic receptor = target: T3, M3 muscarinic receptor (Homo sapiens, UniProt P20309); experiment: Functional mobilization of intracellular calcium (FLIPR), M3-CHO cells; conditions: for Emax: 100% efficacy is the maximum response obtained with the Carbachol control; for M3 Activity: M3-CHO cells, calcium mobilization (FLIPR)
T3 construct: expressed in transfected cells; host or cells: CHO (M3-CHO)
T3 sequence (P20309 whole entry): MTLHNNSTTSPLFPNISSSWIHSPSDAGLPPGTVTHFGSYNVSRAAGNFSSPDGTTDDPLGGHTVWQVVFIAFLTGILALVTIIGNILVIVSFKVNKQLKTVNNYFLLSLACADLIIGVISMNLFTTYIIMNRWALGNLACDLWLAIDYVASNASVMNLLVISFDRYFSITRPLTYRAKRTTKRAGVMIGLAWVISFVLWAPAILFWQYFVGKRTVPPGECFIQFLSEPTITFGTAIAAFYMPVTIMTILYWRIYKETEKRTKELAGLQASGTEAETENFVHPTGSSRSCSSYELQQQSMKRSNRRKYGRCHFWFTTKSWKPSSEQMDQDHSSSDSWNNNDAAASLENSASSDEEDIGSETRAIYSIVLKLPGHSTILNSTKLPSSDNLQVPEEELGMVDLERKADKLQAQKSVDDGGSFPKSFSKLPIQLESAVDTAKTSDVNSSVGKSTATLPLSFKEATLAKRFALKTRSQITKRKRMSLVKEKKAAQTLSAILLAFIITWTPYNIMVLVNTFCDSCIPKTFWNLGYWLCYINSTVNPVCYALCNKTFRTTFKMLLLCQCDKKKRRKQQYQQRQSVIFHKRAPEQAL
In short: as §1

M4 muscarinic receptor = target: T4, M4 muscarinic receptor (Homo sapiens, UniProt P08173); experiment: Functional mobilization of intracellular calcium (FLIPR), M4-CHO cells; conditions: for Emax: 100% efficacy is the maximum response obtained with the Carbachol control; for M4 Activity: M4-CHO cells, calcium mobilization (FLIPR)
T4 construct: expressed in transfected cells; host or cells: CHO (M4-CHO)
T4 sequence (P08173 1-479): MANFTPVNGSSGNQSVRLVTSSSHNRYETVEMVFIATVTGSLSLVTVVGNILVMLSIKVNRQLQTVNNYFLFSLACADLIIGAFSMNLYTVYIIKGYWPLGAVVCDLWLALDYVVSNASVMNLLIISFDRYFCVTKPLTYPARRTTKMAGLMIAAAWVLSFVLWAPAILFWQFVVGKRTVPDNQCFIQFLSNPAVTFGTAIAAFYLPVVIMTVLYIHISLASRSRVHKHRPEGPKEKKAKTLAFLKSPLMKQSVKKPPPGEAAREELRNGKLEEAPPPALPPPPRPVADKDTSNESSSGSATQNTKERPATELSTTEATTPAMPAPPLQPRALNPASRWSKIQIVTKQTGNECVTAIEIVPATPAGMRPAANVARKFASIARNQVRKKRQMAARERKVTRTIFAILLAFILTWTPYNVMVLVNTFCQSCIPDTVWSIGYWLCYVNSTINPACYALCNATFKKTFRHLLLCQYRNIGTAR
In short: as §1

Emax (M1 muscarinic receptor) [%] | Emax (M2 muscarinic receptor) [%] | Emax (M3 muscarinic receptor) [%] | Emax (M4 muscarinic receptor) [%] | Structure (SMILES) | M1 Activity (M1 muscarinic receptor) | M2 Activity (M2 muscarinic receptor) | M3 Activity (M3 muscarinic receptor) | M4 Activity (M4 muscarinic receptor)
< 25 | < 25 | < 25 | 25 to 100 | N#Cc1ccc(C2CCN(C3CCOCC3)CC2)cc1 [Compound 415] | + (activity was measured to be greater than 5.0 μM) | + (activity was measured to be greater than 5.0 μM) | + (activity was measured to be greater than 5.0 μM) | + (activity was measured to be greater than 5.0 μM)
< 25 | < 25 | < 25 | 25 to 100 | COc1ccc(C(=O)c2ccoc2)cc1C1CCN([C@@H]2C[C@H]3CC[C@H]2C3)CC1 [Compound 416] | + (activity was measured to be greater than 5.0 μM) | + (activity was measured to be greater than 5.0 μM) | + (activity was measured to be greater than 5.0 μM) | ++ (activity was measured to be from 1.0 μM to 5.0 μM)
25 to 100 | 25 to 100 | 25 to 100 | > 100 | CCON=C1CCC(N2CCC(c3cc(Cl)ccc3OC)CC2)CC1 (stereo not shown) [Compound 417, 4-(4-(5-chloro-2-methoxyphenyl)piperidin-1-yl)cyclohexanone O-ethyl oxime] | +++ (activity was measured to be less than 1.0 μM) | +++ (activity was measured to be less than 1.0 μM) | + (activity was measured to be greater than 5.0 μM) | +++ (activity was measured to be less than 1.0 μM)
< 25 | < 25 | < 25 | 25 to 100 | COc1ccc(Cl)cc1C1(F)CCN(CC2CCOCC2)CC1 [Compound 418] | ++ (activity was measured to be from 1.0 μM to 5.0 μM) | + (activity was measured to be greater than 5.0 μM) | + (activity was measured to be greater than 5.0 μM) | ++ (activity was measured to be from 1.0 μM to 5.0 μM)
25 to 100 | < 25 | < 25 | 25 to 100 | COc1ccccc1-c1ccccc1C1CCN([C@H]2C[C@H]3CC[C@H]2C3)CC1 [Compound 420] | + (activity was measured to be greater than 5.0 μM) | + (activity was measured to be greater than 5.0 μM) | + (activity was measured to be greater than 5.0 μM) | ++ (activity was measured to be from 1.0 μM to 5.0 μM)
25 to 100 | 25 to 100 | < 25 | 25 to 100 | COc1ccccc1C(=O)COc1ccccc1C1CCN([C@H]2C[C@H]3CC[C@H]2C3)CC1 [Compound 422] | ++ (activity was measured to be from 1.0 μM to 5.0 μM) | ++ (activity was measured to be from 1.0 μM to 5.0 μM) | + (activity was measured to be greater than 5.0 μM) | +++ (activity was measured to be less than 1.0 μM)
< 25 | < 25 | < 25 | 25 to 100 | COc1ccc(-c2ccc(C)cc2)cc1C1CCN([C@H]2C[C@H]3CC[C@H]2C3)CC1 [Compound 423] | + (activity was measured to be greater than 5.0 μM) | + (activity was measured to be greater than 5.0 μM) | + (activity was measured to be greater than 5.0 μM) | + (activity was measured to be greater than 5.0 μM)

The remaining lines, values behind:

Structure (SMILES) | Emax (M1 muscarinic receptor) [%] | Emax (M2 muscarinic receptor) [%] | Emax (M3 muscarinic receptor) [%] | Emax (M4 muscarinic receptor) [%] | M1 Activity (M1 muscarinic receptor) | M2 Activity (M2 muscarinic receptor) | M3 Activity (M3 muscarinic receptor) | M4 Activity (M4 muscarinic receptor)
CCOC(=O)N1C2CCC1CC(N1CCC(c3cc(Cl)ccc3OC)CC1)C2 (stereo not shown) [Compound 406] | 25 to 100 | 25 to 100 | 25 to 100 | 25 to 100 | +++ (activity was measured to be less than 1.0 μM) | +++ (activity was measured to be less than 1.0 μM) | + (activity was measured to be greater than 5.0 μM) | +++ (activity was measured to be less than 1.0 μM)
COc1ccc(-c2ccc(C(N)=O)cc2)cc1C1CCN([C@H]2C[C@H]3CC[C@H]2C3)CC1 [Compound 407] | < 25 | < 25 | < 25 | 25 to 100 | + (activity was measured to be greater than 5.0 μM) | + (activity was measured to be greater than 5.0 μM) | + (activity was measured to be greater than 5.0 μM) | +++ (activity was measured to be less than 1.0 μM)
COc1ccccc1C1CCN(C2C3CC4CC(C3)CC2C4)CC1 (stereo not shown) [Compound 408] | 25 to 100 | < 25 | < 25 | 25 to 100 | + (activity was measured to be greater than 5.0 μM) | + (activity was measured to be greater than 5.0 μM) | + (activity was measured to be greater than 5.0 μM) | +++ (activity was measured to be less than 1.0 μM)
COc1ccc(Cl)cc1C1(F)CCN(C2CCCCC2)CC1 [Compound 409] | 25 to 100 | 25 to 100 | < 25 | 25 to 100 | + (activity was measured to be greater than 5.0 μM) | + (activity was measured to be greater than 5.0 μM) | + (activity was measured to be greater than 5.0 μM) | ++ (activity was measured to be from 1.0 μM to 5.0 μM)
COc1ccccc1C1CCN(C2CCC(OC(=O)c3ccccc3)CC2)CC1 (stereo not shown) [Compound 410] | < 25 | < 25 | < 25 | 25 to 100 | + (activity was measured to be greater than 5.0 μM) | + (activity was measured to be greater than 5.0 μM) | + (activity was measured to be greater than 5.0 μM) | ++ (activity was measured to be from 1.0 μM to 5.0 μM)
CCOC(=O)N1CCC(CN2CCC(c3cc(-c4ccc(S(=O)(=O)N5CCCC5)cc4)ccc3OC)CC2)CC1 [Compound 411] | 25 to 100 | < 25 | < 25 | < 25 | +++ (activity was measured to be less than 1.0 μM) | + (activity was measured to be greater than 5.0 μM) | + (activity was measured to be greater than 5.0 μM) | +++ (activity was measured to be less than 1.0 μM)
COc1ccc(-c2ccsc2)cc1C1CCN([C@@H]2C[C@H]3CC[C@H]2C3)CC1 [Compound 414] | < 25 | < 25 | < 25 | 25 to 100 | + (activity was measured to be greater than 5.0 μM) | + (activity was measured to be greater than 5.0 μM) | + (activity was measured to be greater than 5.0 μM) | ++ (activity was measured to be from 1.0 μM to 5.0 μM)
